For four cell lines, relative viability results are on record in the supplement of paper PMC10307832.

Test in all cases: relative viability (nuclei count vs DMSO), 5 days (fraction); higher = more cells survive
Compound in the test “AZD1208 + Palbociclib”: N[C@@H]1CCCN(c2c(/C=C3\SC(=O)NC3=O)cccc2-c2ccccc2)C1 [AZD1208] + CC(=O)c1c(C)c2cnc(Nc3ccc(N4CCNCC4)cn3)nc2n(C2CCCC2)c1=O [Palbociclib] (partner 0.5 µM)
In a few lines: (§1)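 One day after seeding in 1536-well plates, lung cancer cell lines were dosed by pin tool. Dosing was either single-drug or a fixed anchor-drug dose plus five library-drug doses (not always all listed) in √10 steps. After 5 days, nuclei were stained in one fix-and-stain step and counted on 4× images, and relative viability is the nuclei count of treated wells over that of vehicle wells, given as the median of duplicate plates.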

Compound in the test “AZD1208 + Luminespib”: N[C@@H]1CCCN(c2c(/C=C3\SC(=O)NC3=O)cccc2-c2ccccc2)C1 [AZD1208] + CCNC(=O)c1noc(-c2cc(C(C)C)c(O)cc2O)c1-c1ccc(CN2CCOCC2)cc1 [Luminespib] (partner 0.01 µM)
In a few lines: as §1

Compound in the test “XMD14-99 + Lapatinib”: CN1CCN(CC1)C2=CC(=C(C=C2)NC3=NC(=C(S3)C(=O)C4=C(C=CC=C4Cl)Cl)N)OC [XMD14-99] + CS(=O)(=O)CCNCc1ccc(-c2ccc3ncnc(Nc4ccc(OCc5cccc(F)c5)c(Cl)c4)c3c2)o1 [Lapatinib] (partner 2 µM)
In a few lines: as §1

Compound in the test “AZD1208 + Phenformin”: N[C@@H]1CCCN(c2c(/C=C3\SC(=O)NC3=O)cccc2-c2ccccc2)C1 [AZD1208] + N=C(N)NC(=N)NCCc1ccccc1 [Phenformin] (partner 250 µM)
The method in brief:
as §1

NCI-H1395: the relative viability amounted to 0.598 with AZD1208 + Palbociclib (first compound 0.08 µM); 0.653 in the test with AZD1208 + Palbociclib (first compound 0.253 µM); 0.572 with AZD1208 + Palbociclib (first compound 0.8 µM); 0.62 in the test with AZD1208 + Palbociclib (first compound 2.53 µM); 0.521 with AZD1208 + Palbociclib (first compound 8 µM); 0.705 in the test with AZD1208 + Luminespib (first compound 0.08 µM). Besides, the relative viability with AZD1208 + Luminespib (first compound 0.253 µM) came to 0.784; with AZD1208 + Luminespib (first compound 0.8 µM), 0.608; with AZD1208 + Luminespib (first compound 2.53 µM), 0.539; with AZD1208 + Luminespib (first compound 8 µM) it was 0.553; in the test with XMD14-99 + Lapatinib (first compound 0.08 µM), 0.985; in the test with XMD14-99 + Lapatinib (first compound 0.8 µM), 0.958. Moreover, the relative viability was 1.04 with XMD14-99 + Lapatinib (first compound 2.53 µM); 0.809 with XMD14-99 + Lapatinib (first compound 8 µM); 0.442 in the test with AZD1208 + Phenformin (first compound 0.08 µM); 0.438 with AZD1208 + Phenformin (first compound 0.253 µM); 0.46 in the test with AZD1208 + Phenformin (first compound 0.8 µM); 0.506 with AZD1208 + Phenformin (first compound 2.53 µM). Also, the relative viability with AZD1208 + Phenformin (first compound 8 µM) stood at 0.417.

As for NCI-H358, the relative viability was 0.14 with AZD1208 + Palbociclib (first compound 0.08 µM); 0.149 with AZD1208 + Palbociclib (first compound 0.253 µM); 0.109 in the test with AZD1208 + Palbociclib (first compound 0.8 µM); 0.14 with AZD1208 + Palbociclib (first compound 2.53 µM); 0.14 with AZD1208 + Palbociclib (first compound 8 µM); 0.38 with AZD1208 + Luminespib (first compound 0.08 µM). The relative viability with AZD1208 + Luminespib (first compound 0.253 µM) is 0.307; with AZD1208 + Luminespib (first compound 0.8 µM), 0.514; with AZD1208 + Luminespib (first compound 2.53 µM) it was 0.319; in the test with AZD1208 + Luminespib (first compound 8 µM), 0.122; with XMD14-99 + Lapatinib (first compound 0.08 µM), 0.45; with XMD14-99 + Lapatinib (first compound 0.8 µM), 0.45. The relative viability worked out at 0.317 in the test with XMD14-99 + Lapatinib (first compound 2.53 µM); 0.231 with XMD14-99 + Lapatinib (first compound 8 µM); 0.325 with AZD1208 + Phenformin (first compound 0.08 µM); 0.353 in the test with AZD1208 + Phenformin (first compound 0.253 µM); 0.309 with AZD1208 + Phenformin (first compound 0.8 µM); 0.305 with AZD1208 + Phenformin (first compound 2.53 µM). In addition, the relative viability with AZD1208 + Phenformin (first compound 8 µM) was 0.259.

Regarding PC-14, the relative viability is 0.511 in the test with AZD1208 + Palbociclib (first compound 0.08 µM); 0.59 with AZD1208 + Palbociclib (first compound 0.253 µM); 0.502 in the test with AZD1208 + Palbociclib (first compound 0.8 µM); 0.532 in the test with AZD1208 + Palbociclib (first compound 2.53 µM); 0.475 with AZD1208 + Palbociclib (first compound 8 µM); 0.142 with AZD1208 + Luminespib (first compound 0.08 µM). The relative viability was determined as 0.151 in the test with AZD1208 + Luminespib (first compound 0.253 µM); 0.139 with AZD1208 + Luminespib (first compound 0.8 µM); 0.163 in the test with AZD1208 + Luminespib (first compound 2.53 µM); 0.181 with AZD1208 + Luminespib (first compound 8 µM); 0.328 with XMD14-99 + Lapatinib (first compound 0.08 µM); 0.303 with XMD14-99 + Lapatinib (first compound 0.8 µM). For the same cell line, the relative viability worked out at 0.262 in the test with XMD14-99 + Lapatinib (first compound 2.53 µM); 0.216 in the test with XMD14-99 + Lapatinib (first compound 8 µM); 0.778 with AZD1208 + Phenformin (first compound 0.08 µM); 0.616 in the test with AZD1208 + Phenformin (first compound 0.253 µM); 0.525 with AZD1208 + Phenformin (first compound 0.8 µM); 0.544 with AZD1208 + Phenformin (first compound 2.53 µM). For the same cell line, in the test with AZD1208 + Phenformin (first compound 8 µM), the relative viability was 0.565.

Consider CAL-12T, for which the relative viability came out at 0.501 with AZD1208 + Palbociclib (first compound 0.08 µM); 0.483 with AZD1208 + Palbociclib (first compound 0.253 µM); 0.569 in the test with AZD1208 + Palbociclib (first compound 0.8 µM); 0.434 with AZD1208 + Palbociclib (first compound 2.53 µM); 0.448 with AZD1208 + Palbociclib (first compound 8 µM); 0.363 in the test with AZD1208 + Luminespib (first compound 0.08 µM). For the same cell line, the relative viability in the test with AZD1208 + Luminespib (first compound 0.253 µM) was 0.527; in the test with AZD1208 + Luminespib (first compound 0.8 µM) it was 0.185; with AZD1208 + Luminespib (first compound 2.53 µM), 0.434; in the test with AZD1208 + Luminespib (first compound 8 µM), 0.258; with XMD14-99 + Lapatinib (first compound 0.08 µM) it was 0.603; with XMD14-99 + Lapatinib (first compound 0.8 µM), 0.549. Further, the relative viability with XMD14-99 + Lapatinib (first compound 2.53 µM) worked out at 0.545; in the test with XMD14-99 + Lapatinib (first compound 8 µM), 0.547; with AZD1208 + Phenformin (first compound 0.08 µM) it was 0.517; with AZD1208 + Phenformin (first compound 0.253 µM), 0.698; in the test with AZD1208 + Phenformin (first compound 0.8 µM), 0.557; with AZD1208 + Phenformin (first compound 2.53 µM), 0.522. For the same cell line, in the test with AZD1208 + Phenformin (first compound 8 µM), the relative viability is 0.576.
